Results on 4 compounds are retold here after PubChem BioAssay AID1919000 (Molecular Pharmacology Branch, DTP, NCI, 2023).

Several values for one entry are separate records, joined by “and”; a condition that tells them apart may be missing. Equal entries are not always repeated.

In this assay the test system is 653999-131-R-J2-PDC complex spheroids, growth % test/control. Briefly: Anticancer human tumor 653999-131-R-J2-PDC patient-derived lung adenocarcinoma cell line growth inhibition [AhR]. The conditions noted are these: for viability, T/C: stronger effect = lower value. A digest of the protocol:
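Complex tumor spheroids co-cultured with HUVEC and human MSC stroma; AhR antagonists tested in combination with standard-of-care and investigational agents. Top concentration at or near clinical Cmax (else 10 microM), half-log dilutions; growth expressed as percent test/control.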

The mark [1] stands for this setting: curve of first compound, second compound 0.1 µM.
The mark [2] stands for this setting: curve of first compound, second compound 0.316 µM.
Where [3] appears, read: curve of first compound, second compound 1 µM.
Where [4] appears, read: curve of first compound, second compound 3.16 µM.
Where [5] appears, read: curve of first compound, second compound 10 µM.
[6] abbreviates: second compound 0.1 µM, first compound 0.0316 µM.
Where [7] appears, read: second compound 0.1 µM, first compound 0.1 µM.
The mark [8] stands for this setting: second compound 0.1 µM, first compound 0.316 µM.
Where [9] appears, read: second compound 0.1 µM, first compound 1 µM.
Setting [10] is: second compound 0.1 µM, first compound 3.16 µM.
[11] abbreviates: second compound 0.1 µM, first compound 10 µM.
Setting [12] is: second compound 0.316 µM, first compound 0.0316 µM.
Where [13] appears, read: second compound 0.316 µM, first compound 0.1 µM.
Setting [14] is: second compound 0.316 µM, first compound 0.316 µM.
Where [15] appears, read: second compound 0.316 µM, first compound 1 µM.
Where [16] appears, read: second compound 0.316 µM, first compound 3.16 µM.
The mark [17] stands for this setting: second compound 0.316 µM, first compound 10 µM.
Setting [18] is: second compound 1 µM, first compound 0.0316 µM.
Where [19] appears, read: second compound 1 µM, first compound 0.1 µM.
The mark [20] stands for this setting: second compound 1 µM, first compound 0.316 µM.
Setting [21] is: second compound 1 µM, first compound 1 µM.
The mark [22] stands for this setting: second compound 1 µM, first compound 3.16 µM.
Setting [23] is: second compound 1 µM, first compound 10 µM.
Where [24] appears, read: second compound 3.16 µM, first compound 0.0316 µM.
Where [25] appears, read: second compound 3.16 µM, first compound 0.1 µM.
[26] abbreviates: second compound 3.16 µM, first compound 0.316 µM.
[27] abbreviates: second compound 3.16 µM, first compound 1 µM.
[28] abbreviates: second compound 3.16 µM, first compound 3.16 µM.
The mark [29] stands for this setting: second compound 3.16 µM, first compound 10 µM.
The mark [30] stands for this setting: second compound 10 µM, first compound 0.0316 µM.
The mark [31] stands for this setting: second compound 10 µM, first compound 0.1 µM.
The mark [32] stands for this setting: second compound 10 µM, first compound 0.316 µM.
Where [33] appears, read: second compound 10 µM, first compound 1 µM.
Where [34] appears, read: second compound 10 µM, first compound 3.16 µM.
[35] abbreviates: second compound 10 µM, first compound 10 µM.

For orientation: IC50 means the concentration needed to halve the response being measured. In general, viability, T/C refers to the result in the treated group divided by that in the control group, in per cent.
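Note: spheroids exposed to agents for seven days.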
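Throughout, for viability, T/C: 100% = DMSO vehicle control viability.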

As to `CC(C)c1c(-c2ccccc2)nc2c(C#N)c[nH]n2c1=O` + CC(CO)NC(=O)c1cc(-c2ccc(Cl)cc2)nn(-c2cnn(C)c2)c1=O, the IC50 was greater than 10000 nM under setting [1]; greater than 10000 nM under setting [2]; greater than 10000 nM under setting [3]; greater than 10000 nM under setting [4]; greater than 10000 nM under setting [5]. The viability, T/C reads like this: under setting [6], 104%; under setting [7], 105%; under setting [8], 99.4%; under setting [9], 94.2%; under setting [10], 93.3%; under setting [11], 90.9%. Besides, the viability, T/C by setting is: under setting [12], 102%; under setting [13], 105%; under setting [14], 93.3%; under setting [15], 101%; under setting [16], 93.8%; under setting [17], 99%. Moreover, the viability, T/C is 104% under setting [18]; 106% under setting [19]; 114% under setting [20]; 98% under setting [21]; 97.9% under setting [22]; 95.4% under setting [23]. Also, the viability, T/C by setting is: under setting [24], 105%; under setting [25], 108%; under setting [26], 123%; under setting [27], 93.6%; under setting [28], 92.2%; under setting [29], 91.9%. Moreover, the viability, T/C reads like this: under setting [30], 104%; under setting [31], 116%; under setting [32], 100%; under setting [33], 102%; under setting [34], 95.4%; under setting [35], 96.7%.

In the case of `COc1cccc2c1C(=O)c1c(O)c3c(c(O)c1C2=O)CC(O)(C(=O)CO)CC3OC1CC(N)C(O)C(C)O1` (centres undefined), the viability, T/C reads like this: (compound 0.0316 µM) 62.4% and 56% and 66.2%; (compound 0.1 µM) 40.9% and 45.6% and 56.4%; (compound 0.316 µM) 28.3% and 26.5% and 28.1%; (compound 1 µM) 7.89% and 10.5% and 10.6%; (compound 3.16 µM) 3.94% and 7.29% and 3.85%; (compound 10 µM) 10.6% and 20.5% and 19.3%. Besides, the IC50 (curve of compound) was 66.2 nM and 65.3 nM and 132 nM.

Turning to `CC[C@@]1(O)C(=O)OCc2c1cc1n(c2=O)Cc2cc3c(CN(C)C)c(O)ccc3nc2-1`, the viability, T/C is 118% and 95.5% and 101% (compound 0.000316 µM); 100% and 95.1% and 108% (compound 0.001 µM); 91.8% and 99.8% and 102% (compound 0.00316 µM); 80.7% and 79.8% and 91.8% (compound 0.01 µM); 69.5% and 61.3% and 63.9% (compound 0.0316 µM); 44.3% and 36.5% and 48% (compound 0.1 µM). Moreover, the IC50 (curve of compound) was 84.8 nM and 51.8 nM and 86.6 nM.

Turning to `Nc1ccn(C2OC(CO)C(O)C2(F)F)c(=O)n1` (centres undefined) + Cc1cncc(-c2nc(NCCc3c[nH]c4ccccc34)c3ncn(C(C)C)c3n2)c1, the IC50 under setting [1] was 211 nM; the IC50 under setting [2] worked out at 222 nM; the IC50 under setting [3] is 378 nM; the IC50 under setting [4] amounted to 554 nM; the IC50 under setting [5] came out at 166 nM. For the same compound, the viability, T/C under setting [6] was 67.8%; the viability, T/C under setting [7] was 57.9%; the viability, T/C under setting [8] is 45.5%; the viability, T/C under setting [9] is 38.2%; the viability, T/C under setting [10] was 34.4%; the viability, T/C under setting [11] is 33.4%. Besides, the viability, T/C by setting is: under setting [12], 70.9%; under setting [13], 60.1%; under setting [14], 45.5%; under setting [15], 38.4%; under setting [16], 38.5%; under setting [17], 35.4%. Also, the viability, T/C by setting is: under setting [18], 80.1%; under setting [19], 66.8%; under setting [20], 50.1%; under setting [21], 42.4%; under setting [22], 38.5%; under setting [23], 33.8%. The viability, T/C by setting is: under setting [24], 82.4%; under setting [25], 70%; under setting [26], 56.5%; under setting [27], 43.5%; under setting [28], 39.6%; under setting [29], 41.9%. The viability, T/C under setting [30] was 61%; the viability, T/C under setting [31] was 55.8%; the viability, T/C under setting [32] is 42.4%; the viability, T/C under setting [33] is 43.4%; the viability, T/C under setting [34] is 33.3%; the viability, T/C under setting [35] is 33.2%.
